According to the supplement of paper PMC10307832:

Legend:
Assay in all cases: relative viability (nuclei count vs DMSO), 5 days (fraction); higher = more cells survive
[1] = tested on: NCI-H520
In short: (§1)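 Nuclei were stained with Hoechst during a one-step fixation (final 0.05% Triton X-100, 1% formaldehyde, 1 ug/ml Hoechst) carried out 5 days after dosing, then counted on 4× images. The cells, lung cancer lines in 1536-well plates, had been dosed by pin tool the day after seeding with one drug alone or a fixed anchor-drug dose plus five library-drug doses (not always all listed) in √10 steps. Relative viability is the nuclei count in treated wells divided by that in vehicle wells, and each value is the median of duplicate plates.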

[2] = tested on: NCI-H460
In short: as §1

[3] = tested on: A-427
In short: as §1

[4] = tested on: ChaGo-K-1
In short: as §1

[5] = tested on: BEN
In short: as §1

[6] = tested on: NCI-H2228
In short: as §1

[7] = tested on: NCI-H2085
In short: as §1

[8] = tested on: SW 1573
In short: as §1

[9] = tested on: NCI-H1650
In short: as §1

[10] = tested on: NCI-H727
In short: as §1

[11] = tested on: NCI-H2347
In short: as §1

[12] = tested on: NCI-H322M
In short: as §1

[13] = tested on: EKVX
In short: as §1

[14] = tested on: NCI-H3122
In short: as §1

[15] = tested on: NCI-H596
In short: as §1

[16] = tested on: NCI-H1755
In short: as §1

[17] = tested on: NCI-H650
In short: as §1

[18] = tested on: NCI-H1563
In short: as §1

[19] = tested on: NCI-H838
In short: as §1

Work on COCC1(CO)C(=O)C2CCN1CC2 (centres undefined) [PRIMA-1MET] + CC(C)C[C@H](NC(=O)[C@H](Cc1ccccc1)NC(=O)c1cnccn1)B(O)O [Bortezomib] (partner 0.002 µM) yielded a relative viability ([1]; first compound 0.2 µM) of 0.545, a relative viability ([1]; first compound 0.6325 µM) of 0.503 and a relative viability ([1]; first compound 6.325 µM) of 0.613. For the same compound, the relative viability ([1]; first compound 20 µM) was 0.113, the relative viability ([2]; first compound 0.2 µM) was 1.38 and the relative viability ([2]; first compound 0.6325 µM) was 0.967. It also gave a relative viability ([2]; first compound 2 µM) of 1.05, a relative viability ([2]; first compound 6.325 µM) of 0.581 and a relative viability ([2]; first compound 20 µM) of 0.0059. The relative viability ([3]; first compound 0.2 µM) was 1.09, the relative viability ([3]; first compound 0.6325 µM) was 0.881 and the relative viability ([3]; first compound 2 µM) was 0.901. For the same compound, the relative viability ([3]; first compound 6.325 µM) was 0.839, the relative viability ([3]; first compound 20 µM) was 0.962 and the relative viability ([4]; first compound 0.2 µM) was 1.21. It also gave a relative viability ([4]; first compound 0.6325 µM) of 0.83, a relative viability ([4]; first compound 2 µM) of 1.28 and a relative viability ([4]; first compound 6.325 µM) of 0.988. The relative viability ([4]; first compound 20 µM) was 0.32, the relative viability ([5]; first compound 0.2 µM) was 0.853 and the relative viability ([5]; first compound 0.6325 µM) was 0.75. It also gave a relative viability ([5]; first compound 6.325 µM) of 0.888, a relative viability ([5]; first compound 20 µM) of 0.864 and a relative viability ([6]; first compound 0.2 µM) of 1.1. It also gave a relative viability ([6]; first compound 0.6325 µM) of 0.957, a relative viability ([6]; first compound 2 µM) of 1.09 and a relative viability ([6]; first compound 6.325 µM) of 1.04. For the same compound, the relative viability ([6]; first compound 20 µM) was 0.0398, the relative viability ([7]; first compound 0.2 µM) was 1.08 and the relative viability ([7]; first compound 0.6325 µM) was 0.978. The relative viability ([7]; first compound 2 µM) was 0.856, the relative viability ([7]; first compound 6.325 µM) was 0.609 and the relative viability ([7]; first compound 20 µM) was 0.392. For the same compound, the relative viability ([8]; first compound 0.2 µM) was 1.13, the relative viability ([8]; first compound 0.6325 µM) was 0.802 and the relative viability ([8]; first compound 2 µM) was 1.03. For the same compound, the relative viability ([8]; first compound 6.325 µM) was 0.421, the relative viability ([8]; first compound 20 µM) was 0.0222 and the relative viability ([9]; first compound 0.2 µM) was 0.207. The relative viability ([9]; first compound 0.6325 µM) was 0.222, the relative viability ([9]; first compound 2 µM) was 0.205 and the relative viability ([9]; first compound 6.325 µM) was 0.188. It also gave a relative viability ([9]; first compound 20 µM) of 0.197, a relative viability ([10]; first compound 0.2 µM) of 0.573 and a relative viability ([10]; first compound 0.6325 µM) of 0.829. The relative viability ([10]; first compound 2 µM) was 0.618, the relative viability ([10]; first compound 6.325 µM) was 0.573 and the relative viability ([10]; first compound 20 µM) was 0.0549. It also gave a relative viability ([11]; first compound 0.2 µM) of 1.33, a relative viability ([11]; first compound 0.6325 µM) of 1.11 and a relative viability ([11]; first compound 6.325 µM) of 1.07. It also gave a relative viability ([11]; first compound 20 µM) of 0.847, a relative viability ([12]; first compound 0.2 µM) of 1.3 and a relative viability ([12]; first compound 6.325 µM) of 1.29. For the same compound, the relative viability ([12]; first compound 20 µM) was 1.06, the relative viability ([13]; first compound 0.2 µM) was 1.16 and the relative viability ([13]; first compound 0.6325 µM) was 0.851. For the same compound, the relative viability ([13]; first compound 2 µM) was 0.943, the relative viability ([13]; first compound 6.325 µM) was 1.06 and the relative viability ([13]; first compound 20 µM) was 0.845. It also gave a relative viability ([14]; first compound 0.2 µM) of 0.865, a relative viability ([14]; first compound 0.6325 µM) of 1.01 and a relative viability ([14]; first compound 2 µM) of 0.955. It also gave a relative viability ([14]; first compound 6.325 µM) of 0.986, a relative viability ([14]; first compound 20 µM) of 0.999 and a relative viability ([15]; first compound 0.2 µM) of 1.11. It also gave a relative viability ([15]; first compound 0.6325 µM) of 0.93, a relative viability ([15]; first compound 2 µM) of 0.803 and a relative viability ([15]; first compound 6.325 µM) of 1.25. The relative viability ([15]; first compound 20 µM) was 0.195, the relative viability ([16]; first compound 0.2 µM) was 1.11 and the relative viability ([16]; first compound 0.6325 µM) was 0.892. It also gave a relative viability ([16]; first compound 2 µM) of 0.877, a relative viability ([16]; first compound 6.325 µM) of 0.974 and a relative viability ([16]; first compound 20 µM) of 0.975. For the same compound, the relative viability ([17]; first compound 0.2 µM) was 1.11, the relative viability ([17]; first compound 2 µM) was 0.816 and the relative viability ([17]; first compound 6.325 µM) was 0.508. It also gave a relative viability ([17]; first compound 20 µM) of 0.117, a relative viability ([18]; first compound 0.2 µM) of 0.945 and a relative viability ([18]; first compound 0.6325 µM) of 0.822. The relative viability ([18]; first compound 2 µM) was 0.635, the relative viability ([18]; first compound 6.325 µM) was 1.15 and the relative viability ([18]; first compound 20 µM) was 0.386. The relative viability ([19]; first compound 0.2 µM) was 0.9, the relative viability ([19]; first compound 0.6325 µM) was 0.652 and the relative viability ([19]; first compound 2 µM) was 0.745. It also gave a relative viability ([19]; first compound 6.325 µM) of 0.978 and a relative viability ([19]; first compound 20 µM) of 0.263.
